ChEMBL document CHEMBL1156712, “CNS depressant and anticonvulsant activities of some novel 3-[5-substituted 1,3,4-thiadiazole-2-yl]-2-styryl quinazoline-4(3H)-ones” (Eur J Med Chem, 2008)
Calls of active or inactive are those of the source. The rule behind the calls is not given here.

What was measured:
[1] = test system: Mus musculus; experiment: Anticonvulsant activity in mouse at 300 mg/kg, ip after 4 hrs by MES test; assay type: functional, organism-based; parameters: dose 300 mg/kg
[2] = test system: Rattus norvegicus; experiment: Central nervous system depressant activity in Wistar rat assessed as immobility time at 100 mg/kg, po after 1 hr by forced swim pool test; assay type: functional
[3] = test system: Mus musculus; experiment: Neurotoxicity in ip dosed mouse assessed as minimal motor impairment after 4 hrs by rotarod test; assay type: toxicity, organism-based; details: in vivo
[4] = test system: Mus musculus; experiment: Anticonvulsant activity in mouse at 300 mg/kg, ip after 0.5 hrs by scPTZ test; assay type: functional, organism-based; parameters: dose 300 mg/kg
[5] = test system: Mus musculus; experiment: Neurotoxicity in ip dosed mouse assessed as minimal motor impairment after 0.5 hrs by rotarod test; assay type: toxicity, organism-based; details: in vivo
[6] = test system: Mus musculus; experiment: Anticonvulsant activity in mouse at 300 mg/kg, ip after 0.5 hrs by MES test; assay type: functional, organism-based; parameters: dose 300 mg/kg
[7] = test system: Mus musculus; experiment: Anticonvulsant activity in mouse at 300 mg/kg, ip after 4 hrs by scPTZ test; assay type: functional, organism-based; parameters: dose 300 mg/kg
[8] = test system: Mus musculus; experiment: Neurotoxicity in mouse assessed as minimal motor impairment at 300 mg/kg, ip after 4 hrs by rotarod test; assay type: toxicity, organism-based; parameters: dose 300 mg/kg, route intraperitoneal; details: in vivo
[9] = test system: Mus musculus; experiment: Neurotoxicity in mouse assessed as minimal motor impairment at 300 mg/kg, ip after 0.5 hrs by rotarod test; assay type: toxicity, organism-based; parameters: dose 300 mg/kg, route intraperitoneal; details: in vivo
[10] = test system: Mus musculus; experiment: Anticonvulsant activity in ip dosed mouse after 0.5 hrs by scPTZ test; assay type: functional
[11] = test system: Mus musculus; experiment: Anticonvulsant activity in ip dosed mouse after 4 hrs by scPTZ test; assay type: functional
[12] = test system: Mus musculus; experiment: Neurotoxicity in ip dosed mouse assessed as minimal motor impairment at 100 mg/kg, ip after 0.25 hrs by rotarod test; assay type: toxicity, organism-based; parameters: dose 100 mg/kg, route intraperitoneal; details: in vivo
[13] = test system: Mus musculus; experiment: Neurotoxicity in ip dosed mouse assessed as minimal motor impairment at 100 mg/kg, ip after 1 hr by rotarod test; assay type: toxicity, organism-based; parameters: dose 100 mg/kg, route intraperitoneal; details: in vivo
[14] = test system: Mus musculus; experiment: Anticonvulsant activity in ip dosed mouse after 4 hrs by MES test; assay type: functional
[15] = test system: Mus musculus; experiment: Anticonvulsant activity in ip dosed mouse after 0.5 hrs by MES test; assay type: functional
[16] = test system: Mus musculus; experiment: Toxicity in mouse at 300 mg/kg, ip after 4 hrs; assay type: organism-based; parameters: dose 300 mg/kg, route intraperitoneal; details: in vivo
[17] = test system: Mus musculus; experiment: Neurotoxicity in ip dosed mouse assessed as loss of righting reflux after 0.5 hrs; assay type: toxicity, organism-based; details: in vivo

Row | Structure (SMILES) | Activity [1] | Time [2] [s] | Activity [3] [mg/kg] | Activity [4] | Activity [5] [mg/kg] | Activity [6] | Activity [7] | Activity [8] | Activity [9] | Activity [10] [mg/kg] | Activity [11] [mg/kg] | Activity [12] [mg/kg] | Activity [13] [mg/kg] | Active dose [14] [mg/kg] | Activity [15] [mg/kg] | Activity [16] | Activity [17]
1 | O=c1c2ccccc2nc(/C=C/c2ccncc2)n1-c1nnc(-c2cccc(Cl)c2)s1 | inactive | 142.36 | 300 | inactive | 300 | inactive | inactive | – | – | – | – | – | – | – | – | – | –
2 | O=c1c2ccccc2nc(/C=C/c2ccncc2)n1-c1nnc(-c2ccccc2)s1 | inactive | 83.23 | – | inactive | – | inactive | inactive | Non-toxic | Non-toxic | – | – | – | – | – | – | – | –
3 | Cc1ccc(-c2nnc(-n3c(/C=C/c4cccc(Cl)c4)nc4ccccc4c3=O)s2)cc1 | inactive | 100.76 | – | inactive | – | inactive | inactive | Non-toxic | Non-toxic | – | – | – | – | – | – | – | –
4 | CCCC(CCC)C(=O)[O-].[Na+] [VALPROATE SODIUM] | inactive | – | – | – | – | inactive | inactive | Non-toxic | Non-toxic | 300 | – | – | – | – | – | – | –
5 | Cc1ccc(-c2nnc(-n3c(/C=C/c4ccncc4)nc4ccccc4c3=O)s2)cc1 | inactive | 131.51 | – | inactive | 100 | inactive | inactive | Non-toxic | – | – | – | – | – | – | – | – | –
6 | O=c1c2ccccc2nc(/C=C/c2ccc(Cl)cc2)n1-c1nnc(-c2cccc(Cl)c2)s1 | inactive | 127.48 | – | – | 300 | inactive | – | Non-toxic | – | 300 | 300 | 100 | 100 | – | – | – | –
7 | Cc1ccc(-c2nnc(-n3c(/C=C/c4ccc(Cl)cc4)nc4ccccc4c3=O)s2)cc1 | inactive | 150.1 | – | inactive | 300 | inactive | inactive | Non-toxic | – | – | – | – | – | – | – | – | –
8 | O=C1NC(=O)C(c2ccccc2)(c2ccccc2)N1 [PHENYTOIN] | – | – | 100 | inactive | 100 | – | inactive | – | – | – | – | – | – | 30 | 30 | – | –
9 | O=c1c2ccccc2nc(/C=C/c2ccc(Cl)cc2)n1-c1nnc(-c2ccccc2)s1 | – | 103.26 | – | – | – | – | – | Non-toxic | Non-toxic | 300 | 300 | – | – | 300 | 100 | Toxic | –
10 | COc1ccc(-c2nnc(-n3c(/C=C/c4ccncc4)nc4ccccc4c3=O)s2)cc1 | inactive | 168.42 | – | inactive | – | inactive | inactive | Non-toxic | Non-toxic | – | – | – | – | – | – | – | –
11 | O=c1c2ccccc2nc(/C=C/c2ccc(Cl)cc2)n1-c1nnc(-c2ccc(Cl)cc2)s1 | inactive | 117.93 | – | inactive | 300 | inactive | inactive | Non-toxic | – | – | – | – | – | – | – | – | –
12 | COc1ccc(-c2nnc(-n3c(/C=C/c4ccc(Cl)cc4)nc4ccccc4c3=O)s2)cc1 | inactive | 177.08 | 300 | inactive | 300 | inactive | inactive | – | – | – | – | – | – | – | – | – | –
13 | CCC1(C)CC(=O)NC1=O (centres undefined) [ETHOSUXIMIDE] | inactive | – | – | – | – | inactive | inactive | Non-toxic | Non-toxic | 300 | – | – | – | – | – | – | –
14 | COc1ccc(-c2nnc(-n3c(/C=C/c4cccc(Cl)c4)nc4ccccc4c3=O)s2)cc1 | inactive | 163.21 | – | inactive | – | inactive | inactive | Non-toxic | Non-toxic | – | – | – | – | – | – | – | –
15 | O=c1c2ccccc2nc(/C=C/c2ccc(Cl)cc2)n1-c1nnc(/C=C/c2ccccc2)s1 | inactive | 73.83 | – | inactive | – | inactive | inactive | Non-toxic | Non-toxic | – | – | – | – | – | – | – | –
16 | O=c1c2ccccc2nc(/C=C/c2cccc(Cl)c2)n1-c1nnc(-c2ccc(Cl)cc2)s1 | inactive | 163.75 | – | inactive | – | inactive | inactive | Non-toxic | Non-toxic | – | – | – | – | – | – | – | –
17 | NC(=O)N1c2ccccc2C=Cc2ccccc21 [CARBAMAZEPINE] | – | – | 100 | – | 100 | – | – | – | – | 100 | 300 | – | – | 100 | 30 | – | –
18 | O=c1c2ccccc2nc(/C=C/c2ccncc2)n1-c1nnc(/C=C/c2ccccc2)s1 | inactive | 114.42 | – | inactive | – | inactive | inactive | Non-toxic | Non-toxic | – | – | – | – | – | – | – | –
19 | O=c1c2ccccc2nc(/C=C/c2cccc(Cl)c2)n1-c1nnc(/C=C/c2ccccc2)s1 | inactive | 187.91 | – | inactive | – | inactive | inactive | Non-toxic | Non-toxic | – | – | – | – | – | – | – | –
20 | O=c1c2ccccc2nc(/C=C/c2cccc(Cl)c2)n1-c1nnc(-c2ccccc2)s1 | inactive | 132.69 | – | inactive | 300 | inactive | inactive | Non-toxic | – | – | – | – | – | – | – | – | Toxic
21 | O=c1c2ccccc2nc(/C=C/c2ccncc2)n1-c1nnc(-c2ccc(Cl)cc2)s1 | – | 99.82 | – | – | 300 | inactive | – | Non-toxic | – | 300 | 300 | – | – | 100 | – | – | –
22 | O=c1c2ccccc2nc(/C=C/c2cccc(Cl)c2)n1-c1nnc(-c2cccc(Cl)c2)s1 | inactive | 175.83 | – | inactive | – | inactive | inactive | Non-toxic | Non-toxic | – | – | – | – | – | – | – | –
